According to patent US20050197350A1, “Novel quinoline, tetrahydroquinazoline, and pyrimidine derivatives and methods of treatment related to the use thereof” (TAISHO PHARMACEUTICAL CO., LTD., priority 2003, published 2005):

Biological target: MCH receptor (Homo sapiens, UniProt Q99705)
Experiment: High throughput functional screening FLIPR/FDSS6000 (intracellular Ca2+ evoked by MCH)
Format: cell-based
Settings: FLIPR/FDSS, antagonist activity vs 50 nM MCH; class by percent of control at 10^−7 M or IC50; table after the classification; read-out: class
Summary of the method: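 For antagonist testing, compound-treated cells (30 min, 37 °C) were stimulated with 50 nM MCH and intracellular Ca2+ followed by Fluo4 fluorescence on FLIPR/FDSS6000. Receptor was a constitutively active, non-endogenous MCH receptor; dye loading 4 μM Fluo4-AM, 1 h, 37 °C.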

Cc1cc(N[C@H]2CC[C@@H](NC(=O)c3cncc(F)c3)CC2)nc2ccccc12 [Example 3397, 5-Fluoro-N-[cis-4-(4-methyl-quinolin-2-ylamino)-cyclohexyl]-nicotinamide]
IC50: < 50 nM
